Test results reported in ChEMBL document CHEMBL1201862, “PubChem BioAssay data set” (2004).
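96-well plates; 48 h exposure; 5 concentrations. Endpoints by linear interpolation between flanking doses. Not reached: highest tested concentration assigned. At the GI50, growth is halved.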 Calls of active or inactive are those of the source. No stated cut-off is given here; in the data, active = GI50 up to about 1.1 µM and inactive = higher.

Legend:
Assay in all cases: inhibition of tumour cell growth, NCI panel, 48 h
[1] = test system: SNB-75
[2] = test system: NCI-H23
[3] = test system: TK-10
[4] = test system: SK-OV-3
[5] = test system: HCT-15
[6] = test system: HOP-62
[7] = test system: NCI-H522
[8] = test system: A549
[9] = test system: RXF 393
[10] = test system: Malme-3M
[11] = test system: UO-31
[12] = test system: M14
[13] = test system: SF-268
[14] = test system: UACC-62
[15] = test system: U-251
[16] = test system: HL-60
[17] = test system: HCC 2998
[18] = test system: 786-0
[19] = test system: SK-MEL-28
[20] = test system: NCI-H226

Row | SMILES | GI50 [1] | GI50 [2] | GI50 [3] | GI50 [4] | GI50 [5] | GI50 [6] | GI50 [7] | GI50 [8] | GI50 [9] | GI50 [10] | GI50 [11] | GI50 [12] | GI50 [13] | GI50 [14] | GI50 [15] | GI50 [16] | GI50 [17] | GI50 [18] | GI50 [19] | GI50 [20]
1 | Cc1nc2c(o1)/C(=N\c1ccccc1)c1ccccc1/C2=N/c1ccccc1 | 61.8 µM (inactive) | 49.2 µM (inactive) | > 100 µM (inactive) | > 100 µM (inactive) | 16 µM | > 100 µM (inactive) | 33 µM (inactive) | > 100 µM (inactive) | > 100 µM (inactive) | 56.6 µM (inactive) | 73.6 µM (inactive) | 51.5 µM (inactive) | > 100 µM (inactive) | > 100 µM (inactive) | 79.3 µM (inactive) | > 100 µM (inactive) | > 100 µM (inactive) | 45.1 µM (inactive) | – | –
2 | Cc1ccc(C(=O)/C(C#N)=C/Nc2c(C)n(C)n(-c3ccccc3)c2=O)cc1 | – | > 100 µM (inactive) | > 100 µM (inactive) | > 100 µM (inactive) | > 100 µM | > 100 µM (inactive) | > 100 µM (inactive) | > 100 µM (inactive) | > 100 µM (inactive) | > 100 µM (inactive) | > 100 µM (inactive) | > 100 µM (inactive) | > 100 µM (inactive) | > 100 µM (inactive) | > 100 µM (inactive) | > 100 µM (inactive) | > 100 µM (inactive) | > 100 µM (inactive) | > 100 µM (inactive) | > 100 µM (inactive)
3 | CS/C(=N\C(=S)N(C)C)N(c1ccccc1)c1nc(N(C)C)s[s+]1 | 3.18 µM (inactive) | 12.4 µM (inactive) | 40.3 µM (inactive) | 41.3 µM (inactive) | 19.8 µM | 19.5 µM (inactive) | 1.47 µM (inactive) | 3.84 µM (inactive) | 14 µM (inactive) | 2.34 µM (inactive) | 27.9 µM (inactive) | 4.83 µM (inactive) | 12.1 µM (inactive) | 4.88 µM (inactive) | 6.84 µM (inactive) | 1.61 µM (inactive) | 11.9 µM (inactive) | 16.4 µM (inactive) | 2.21 µM (inactive) | –
4 | N#Cc1nc(CCCN2C(=O)c3ccccc3C2=O)oc1N | – | > 100 µM (inactive) | > 100 µM (inactive) | > 100 µM (inactive) | > 100 µM | > 100 µM (inactive) | > 100 µM (inactive) | > 100 µM (inactive) | > 100 µM (inactive) | > 100 µM (inactive) | > 100 µM (inactive) | > 100 µM (inactive) | > 100 µM (inactive) | – | > 100 µM (inactive) | – | > 100 µM (inactive) | > 100 µM (inactive) | > 100 µM (inactive) | > 100 µM (inactive)
5 | COc1ccc(NC(C)=O)c(C(=O)CCNC(C)=O)c1 | > 100 µM (inactive) | > 100 µM (inactive) | > 100 µM (inactive) | > 100 µM (inactive) | > 100 µM | – | > 100 µM (inactive) | > 100 µM (inactive) | > 100 µM (inactive) | – | > 100 µM (inactive) | > 100 µM (inactive) | > 100 µM (inactive) | > 100 µM (inactive) | > 100 µM (inactive) | > 100 µM (inactive) | – | > 100 µM (inactive) | – | > 100 µM (inactive)
6 | N/C(=N\Nc1nc2cc([N+](=O)[O-])ccc2o1)c1ccccn1 | 0.817 µM (active) | 0.229 µM (active) | 0.193 µM (active) | 0.403 µM (active) | 0.0287 µM | 0.232 µM (active) | 0.043 µM (active) | 0.163 µM (active) | 0.0622 µM (active) | 0.401 µM (active) | – | 0.144 µM (active) | 0.0738 µM (active) | 0.0574 µM (active) | 0.0966 µM (active) | 0.0594 µM (active) | – | 0.0897 µM (active) | 0.222 µM (active) | 0.418 µM (active)
7 | CC1OC=CC(=O)C1O (stereo not given) | > 100 µM (inactive) | > 100 µM (inactive) | > 100 µM (inactive) | > 100 µM (inactive) | > 100 µM | > 100 µM (inactive) | 50.4 µM (inactive) | > 100 µM (inactive) | > 100 µM (inactive) | > 100 µM (inactive) | > 100 µM (inactive) | > 100 µM (inactive) | – | > 100 µM (inactive) | > 100 µM (inactive) | > 100 µM (inactive) | > 100 µM (inactive) | – | > 100 µM (inactive) | –
8 | OCC(O)C(O)C(O)C(/C=N\Nc1ncnc2ccc(Br)cc12)=N/Nc1ncnc2ccc(Br)cc12 (stereo not given) | 24.4 µM (inactive) | – | 80.5 µM (inactive) | 6.38 µM (inactive) | – | 7.16 µM (inactive) | 0.596 µM (active) | 23.2 µM (inactive) | 24.9 µM (inactive) | 3.53 µM (inactive) | 37.5 µM (inactive) | 9.48 µM (inactive) | 0.423 µM (active) | – | 3.34 µM (inactive) | 3.15 µM (inactive) | – | 5.47 µM (inactive) | 45.9 µM (inactive) | 5.58 µM (inactive)
